Structures can show the parent of a compound that is named as a salt.

The target in this experiment is human tryptase. Description: Inhibition of human tryptase (apparent dissociation constant, chromogenic substrate tos-Gly-Pro-arg-pNA). The experiment is classed as biochemical. As to conditions: apparent dissociation constant in presence of substrate; heparin 0.1-50 μg/ml; equilibrium conditions; read-out: Klapp. The text has this:
The documented pathophysiological effects of mast cell tryptase are caused directly by the enzymatic activity of the protease. Accordingly, they are reduced or blocked by inhibitors which inhibit the enzymatic activity of the tryptase. A suitable measure for the affinity of a reversible inhibitor to the target protease is the equilibrium dissociation constant Ki of the enzyme-inhibitor complex. This Ki value can be determined via the effect of the inhibitor on the tryptase-induced cleavage of a chromogenic peptide-p-nitroanilide substrate or a fluorogenic peptide-aminomethylcoumarin substrate.
The dissociation constants for the tryptase-inhibitor complexes are determined under equilibrium conditions in accordance with the general proposals of Bieth (Bieth J G, Pathophysiological Interpretation of kinetic constants of protease inhibitors, Bull. Europ. Physiopath. Resp. 16:183-195, 1980) and the methods of Sommerhoff et al. (Sommerhoff C P et al., A Kazal-type inhibitor of human mast cell tryptase: Isolation from the medical leech Hirudo medicinalis, characterization, and sequence analysis, Biol. Chem. Hoppe-Seyler 375: 685-694, 1994).
Human tryptase is isolated from lung tissue or prepared recombinantly; the specific activity of the protease, determined by titration, is usually greater than 85% of the theoretical value. In the presence of heparin (0.1-50 μg/ml) for stabilizing the protease, constant amounts of the tryptase are incubated with increasing amounts of the inhibitors. After an equilibrium between the reaction partners has formed, the remaining enzyme activity after addition of the peptide-p-nitroanilide substrate tos-Gly-Pro-arg-pNA is determined and the cleavage of the latter is monitored at 405 nm for 3 min. Alternatively, the remaining enzymatic activity can also be determined using fluorogenic substrates. The apparent dissociation constants Kiapp (i.e. in the presence of substrate) are subsequently determined by adapting the enzyme rates to the general equation for reversible inhibitors (Morrison J F, Kinetics of the reversible inhibition of enzymecatalyzed reactions by tight-binding inhibitors, Biochim. Biophys. Acta 185, 269-286, 1969) using non-linear regression:
V1V0=1−{Et+It+Kiapp−[(Et+It+Kiapp)^2−4EtIt]^½}/2Et
V1 and V0 are the rates in the presence and absence, respectively, of the inhibitor, and Et and It are the tryptase and inhibitor concentrations, respectively.
The apparent dissociation constants determined for the compounds according to the invention are shown in Table A below, where the numbers of the compounds correspond to the numbers of the compounds in the examples.
Take `NCc1ccc(CNC(=O)N2CCN(C(=O)CN3CCC(=O)N(CC(=O)N4CCN(C(=O)NCc5ccc(CN)cc5)CC4)CCC3=O)CC2)cc1` [Compound 1, 1,5-bis-{2-[4-(4-Aminomethylbenzylaminocarbonyl)piperazin-1-yl]-2-oxoethyl}perhydro-1,5-diazocin-2,6-dione Dihydrochloride]: the Ki is 2.6 nM.

With `NCc1ccc(CCC(=O)N2CCN(C(=O)CN3CCC(=O)N(CC(=O)N4CCN(C(=O)CCc5ccc(CN)cc5)CC4)CCC3=O)CC2)cc1` [Compound 2, 1,5-bis-{2-[4-(3-(4-aminomethylphenyl)proplonyl)piperazin-1-yl]-2-oxoethyl}perhydro-1,5-diazocin-2,6-dione Dihydrochloride], the Ki is 1.2 nM.

With `NCc1cccc(CCC(=O)N2CCN(C(=O)CN3CCC(=O)N(CC(=O)N4CCN(C(=O)CCc5cccc(CN)c5)CC4)CCC3=O)CC2)c1` [Compound 3, 1,5-bis-{2-[4-(3-(3-aminomethylphenyl)proplonyl)piperazin-1-yl]-2-oxoethyl}perhydro-1,5-diazocin-2,6-dione Dihydrochloride], the Ki was found to be 3.3 nM.

As to `NCc1ccc(OCC(=O)N2CCN(C(=O)CN3CCC(=O)N(CC(=O)N4CCN(C(=O)COc5ccc(CN)cc5)CC4)CCC3=O)CC2)cc1` [Compound 4, 1,5-bis-{2-[4-(2-(4-Aminomethylphenoxy)acetyl)perazin-1-yl]-2-oxoethyl}perhydro-1.5-diazocin-2,6-dione Dihydrochloride], the Ki came to 0.8 nM.
